The test system of series [1] is HIV-1 infection of TZM-bl cells. The experiment in a line: HIV-1 infectivity enhancement assay, β-galactosidase luminescence. The series is classed as cell-based. The following applies: for Log10 Infection Rel EF-C: log10 of infection relative to EF-C.
The format of series [2] is physicochemical. The following applies: for ThT Cat. / ThT-Fluorescence (categorical): ThT-active if fluorescence at least twice the control. In outline: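 Fibrils (1 mg/mL solution) were mixed with 50 µM ThT in PBS for 15 min at RT, and fluorescence was read at λex 440/λem 488 nm against a PBS blank, as a triplicate mean ± SD. Zeta potential came from electrophoretic mobility (Smoluchowski) after 1 d aggregation at 1 mg/mL in PBS pH 7.4, diluted into 1 mM KCl.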

The nature of series [3]: Zeta-potential measurement. The note with it: for Zeta pot. / mV: 1 mg/mL in PBS pH 7.4 from 10 mg/mL DMSO stock, 1 d RT, 60 µL diluted in 600 µL 1 mM KCl, Zetasizer Nano ZS, Smoluchowski, mean of triplicate; for Zeta-Potential / mV: mean. The series is classed as physicochemical. A digest of the protocol: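 Charge on peptide aggregates was assessed by electrophoretic mobility in 1 mM KCl, converted per Smoluchowski. Prior aggregation: 1 mg/mL, pH 7.4 PBS, 1 d, RT.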

The mark [4] stands for this setting: n-fold infection vs virus only, relative to that of EF-C, 1.3 µM peptide.
The mark [5] stands for this setting: HIV-1 infection relative to EF-C, Fig 23 plot, panels A and B, mean of 3 values.
[6] abbreviates: HIV-1 infection relative to EF-C, Fig 23 plot, single data point, replicate 1.
[7] abbreviates: HIV-1 infection relative to EF-C, Fig 23 plot, single data point, replicate 2.
[8] abbreviates: HIV-1 infection relative to EF-C, Fig 23 plot, single data point, replicate 3.

As to RLRLTLC [CN13], in series [1] (Feb2021, figures match the 1.3 µM column), the “Absolute Infectivity / RLU /s (Feb2021)” value turned out to be 1334 RLU /s. Further, the “n-fold to virus (Feb2021)” value in series [1] (Feb2021, infectivity relative to virus only) is 2.165. For the same substance, the “Log10 of Rel to EFC (Feb2021)” value in series [1] (Feb2021, log10 of infectivity relative to EF-C) is listed as -1.288. The “Rel-to EFC (Feb-2021)” value in series [1] (Feb2021, n-fold infectivity relative to EF-C) was found to be 0.05153. In series [1] (infectivity class (low / medium / high) of each library peptide, main list in c1-c6, same classes repeated in sub-lists of sequences containing the hydrophobicity/charge patterns P+,H0,P+,H0,P0,H0,P0, P+,H0,P0,H0,P0,H0,P0, P+,H0,P0,H0), the infectivity result is “low”. Also, the “Log10 Inf. rel. to EF-C” value in series [1] (log10 of HIV-1 infection of TZM-bl cells relative to EF-C, Fig S15 source data, asymmetric std dev errors) is given as -1.288. In series [2] (ThT fluorescence relative to blank, blank = 42.1851851851852), the “Tht rel to blank (42.1851851851852)” value was determined as 1.899. Besides, the “Tht category (> 1.5 to blank = +)” value in series [2] (category 1/0) is 0 (ThT-inactive (N-Fold <2)). In addition, in series [3], the “Zeta Pot. / mV” value is listed as 19.67 mV and the “Zeta category ( +1 = if > 4 mV;-1 = if < -4 mV; 0 = -4mV to 4 mV)” value is listed as 1 (+1 = if > 4 mV). In series [3] (zeta potential of peptide, Fig S15 source data), the “Zeta-pot. / mV” value is 19.67 mV.

As to RQGNINIVA [reference compound], the “infectivity enhancement, in words” value in series [1] (fibril-forming peptides with positive zeta-potential, low count rate) is recorded as “do not enhance infectivity”. Besides, in series [1] (Figure 7B), the “Log10 Infection Rel EF-C” value is given as -0.93. Moreover, the “Inf. rel. EF-C” value in series [1] (setting [4]) is listed as 0.12. The “ThT Cat. / ThT-Fluorescence (categorical)” value (from here on “ThT Cat. / ThT-Fluorescence”) in series [2] is recorded as 1 (ThT. Cat is 1, if Rel. ThT >2). Moreover, in series [3], the “Zeta pot. / mV” value is 10.2 mV. Also, in series [3] (Figure 7B), the “Zeta-Potential / mV” value came out at 10.17 mV.

As for RVHLGLG, the “Inf. rel. EF-C” value in series [1] (setting [5]) is listed as 0.0206; in series [1] (setting [6]), 0.01527; in series [1] (setting [7]) it was 0.01985; in series [1] (setting [8]) it was 0.02667; in series [1] (setting [4]) it was 0.02. Further, the “Log10 Infection Rel EF-C” value in series [1] (Figure 6C) is -1.686. Moreover, in series [2], the “ThT Cat. / ThT-Fluorescence” value is 0 (ThT-inactive (N-Fold <2)). Further, the “Zeta pot. / mV” value in series [3] is recorded as -6.01 mV. The “Zeta-Potential / mV” value in series [3] (Figure 6C) is given as -6.01 mV.

In the case of RVRVTVT, the “Inf. rel. EF-C” value in series [1] (setting [5]) was determined as 0.05962; in series [1] (setting [6]) it was 0.04632; in series [1] (setting [7]), 0.07129; in series [1] (setting [8]), 0.06124; in series [1] (setting [4]) it was 0.06. In addition, the “Log10 Infection Rel EF-C” value in series [1] (Figure 6C) was -1.225. Besides, the “ThT Cat. / ThT-Fluorescence” value in series [2] was 0 (ThT-inactive (N-Fold <2)). Besides, in series [3], the “Zeta pot. / mV” value is on record as -3.713 mV. The “Zeta-Potential / mV” value in series [3] (Figure 6C) was -3.713 mV.

VHDCVNITIK [reference compound]: in series [1] (Figure 7B), the “Log10 Infection Rel EF-C” value is reported as -0.27. Besides, in series [1] (setting [4]), the “Inf. rel. EF-C” value was found to be 0.53. Further, the “Abs Infection at 0.26µM” value in series [1] (peptide 0.26 µM, mean of n = 3, Figure 7A) amounted to 46666.66667. Moreover, in series [1] (peptide 1.3 µM, mean of n = 3, Figure 7A), the “Abs Infection at 1.3 µM” value worked out at 86910. Besides, the “Abs Infection at 6.5 µM” value in series [1] (peptide 6.5 µM, mean of n = 3, Figure 7A) is reported as 136243.3333. Further, the “ThT Cat. / ThT-Fluorescence” value in series [2] is given as 1 (ThT. Cat is 1, if Rel. ThT >2). Also, the “Zeta-Potential / mV” value in series [3] (Figure 7B) amounted to 9.27 mV.
